Test [1] deals with GDP-bound BRAS protein (aa 1-169), containing both G12C and C118A amino acid substitutions (Homo sapiens, UniProt P01116, C118A/G12C). The test can be described thus: Coupled Nucleotide Exchange Assay (SOS-mediated nucleotide exchange, AlphaScreen). Format: biochemical. Particulars: 2 hours compound pre-incubation. The essentials:
(§1)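 His-tagged GDP-bound […] (aa 1-169, G12C/C118A) pre-incubated 2 h with compound titration in 25 mM HEPES pH 7.4, 10 mM MgCl2, 0.01% Triton X-100.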

Test [2] has as its target GDP-bound protein (aa 1-169), containing both G12C and C118A amino acid substitutions (Homo sapiens, UniProt P01116, C118A/G12C). The test is described as above. Format: biochemical. Particulars: 2 hours compound pre-incubation. Summed up:
as §1

Test [3] concerns Phosphorylation of ERK½ in MIA PaCa-2 cells. The test can be described thus: Phospho-ERK½ MSD Assay in MIA PaCa-2 cells. Particulars: Homo sapiens, MIA PaCa-2, MIA PaCa-2 cells; 4 hours compound treatment; 10 ng/mL EGF for 10 min; read-out: p-ERK IC50 (MIA PaCa-2). Format: cell-based. Summed up: (§2)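 MIA PaCa-2 or A549 cells (25,000/well, RPMI with 10% FBS) exposed to compound titration for 4 h at 37 °C, then stimulated with 10 ng/mL EGF for 10 min and lysed in RIPA. Phospho-ERK1/2 quantified by MSD whole-cell lysate immunoassay; IC50 from 4-parameter logistic fit.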

The test system of test [4] is Phosphorylation of ERK½ in A549 cells. As to the kind of experiment: Phospho-ERK½ MSD Assay in A549 cells. Particulars: Homo sapiens, A549, A549 cells; 4 hours compound treatment; 10 ng/mL EGF for 10 min; read-out: p-ERK IC50 (A549). Format: cell-based. Summed up: as §2

The source of these data is patent US11285135B2 (AMGEN INC., priority 2016, dated 2022).

GDP-bound protein (aa 1-169), containing both G12C and C118A amino acid substitutions, sequence (P01116 1-169 isoform P01116-2 G12C/C118A): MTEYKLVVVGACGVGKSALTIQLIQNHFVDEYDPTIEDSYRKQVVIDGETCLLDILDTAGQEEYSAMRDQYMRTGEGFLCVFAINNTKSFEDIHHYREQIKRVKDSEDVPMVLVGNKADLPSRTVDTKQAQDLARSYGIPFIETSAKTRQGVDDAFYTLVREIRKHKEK
GDP-bound BRAS protein (aa 1-169), containing both G12C and C118A amino acid substitutions, sequence (P01116 1-169 isoform P01116-2 G12C/C118A): as above

As a reminder, the IC50 is the concentration at which inhibition is half-maximal. In test [1], `C=CC(=O)N1CCN(c2nc(=O)n(-c3ccccc3C(C)C)c3cc(Br)c(Cl)cc23)[C@@H](C)C1` [Example 9-2, 7-bromo-6-chloro-4-((2S)-2-methyl-4-(2-propenoyl)-1-piperazinyl)-1-(2-(2-propanyl)phenyl)-2(1H)-quinazolinone] registered an IC50 of 0.289 µM.
For `C=CC(=O)N1CCN(c2snc3c(F)c(-c4cc(N)nc5ccccc45)c(Cl)cc23)CC1` [Example 26, 1-(4-(6-(2-amino-4-quinolinyl)-5-chloro-7-fluoro-2,1-benzothiazol-3-yl)-1-piperazinyl)-2-propen-1-one], the “Coupled exchange IC50” value in test [2] came to 3.90 µM. The results for the IC50 in test [3] and in test [4] were 30.3 µM and more than 100 µM, respectively.
With `C=CC(=O)N1CCN(c2nnc(-c3ccccc3C(C)C)c3cc(-c4c(O)cccc4F)c(C)nc23)CC1` [Example 27, 1-(4-(3-(2-Fluoro-6-hydroxyphenyl)-2-methyl-5-(2-(2-propanyl)phenyl)pyrido[2,3-d]pyridazin-8-yl)-1-piperazinyl)-2-propen-1-one], the “Coupled exchange IC50” value in test [2] came to 1.78 µM. The IC50 in test [3] is 12.8 µM; in test [4], more than 33.3 µM.
The like results for `C=CC(=O)N1CCN(c2nnc(Cc3ccc(F)cc3)c3cc(-c4c(O)cccc4F)c(Cl)cc23)CC1` [Example 29, 1-(4-(7-Chloro-4-(4-fluorobenzyl)-6-(2-fluoro-6-hydroxyphenyl)-1-phthalazinyl)-1-piperazinyl)-2-propen-1-one] were, in that order, 3.76 µM, more than 100 µM and more than 100 µM.
As for `C=CC(=O)N1CCN(c2nnc(-c3ccccc3)c3cc(-c4c(O)cccc4F)c(Cl)cc23)CC1` [Example 30, 2-(1-(4-Acryloyl-1-piperazinyl)-7-chloro-4-phenyl-6-phthalazinyl)-3-fluorophenol], the “Coupled exchange IC50” value in test [2] stood at 7.51 µM. The IC50 in test [3] was 58 µM; in test [4], more than 100 µM.
In the case of `C=CC(=O)N1CCN(c2nnc(Cc3ccccc3)c3cc(-c4c(O)cccc4F)c(Cl)cc23)CC1` [Example 35, 2-(1-(4-acryloyl-1-piperazinyl)-4-benzyl-7-chloro-6-phthalazinyl)-3-fluorophenol], the “Coupled exchange IC50” value in test [2] turned out to be 8.01 µM. Besides, the IC50 in test [3] was 79.7 µM; in test [4], more than 100 µM.
In the case of `C=CC(=O)N1CCN(c2nc(=O)n(CC3CC3)c3nc(-c4c(O)cccc4F)c(Cl)cc23)CC1` [Example 38, 6-chloro-1-(cyclopropylmethyl)-7-(2-fluoro-6-hydroxyphenyl)-4-(4-(2-propenoyl)-1-piperazinyl)pyrido[2,3-d]pyrimidin-2(1H)-one], the “Coupled exchange IC50” value in test [2] worked out at 0.484 µM. In addition, the values for the IC50 in test [3] and in test [4] were 1.39 µM and more than 33.3 µM, respectively.
